Measured values from patent publication EP4603105A1, “PHARMACEUTICAL COMPOSITION CONTAINING CYCLIC COMPOUND HAVING SELECTIVE KRAS INHIBITORY EFFECT AGAINST HRAS AND NRAS” (CHUGAI SEIYAKU KABUSHIKI KAISHA, priority 2022, dated 2024).
*1 amine or outer side, *2 acyl side, *3 side chain or, on linkers, in order; H or OH if unused. Where a SMILES comes first, the peptide text is derived from it. Bridges are numbered along the chain shown (N, C = ends). [ ]: non-standard residue; d: D form. The star is where a group is joined. hPhe(3-Cl-4-CF3) = N[C@@H](CCc1ccc(C(F)(F)F)c(Cl)c1)C(=O)O; NPrPhe(4-CF3) = CCCN[C@@H](Cc1ccc(C(F)(F)F)cc1)C(=O)O; X5 = Cc1ccc(C[C@@H](C(=O)[*:2])N(CCC(C)(C)C)[*:1])cc1; NMeGly(cPent) = CN[C@H](C(=O)O)C1CCCC1; Aze(3S-Me) = C[C@H]1CN[C@@H]1C(=O)O; Hyp = O=C(O)[C@@H]1C[C@@H](O)CN1; NMeD = CN[C@@H](CC(=O)O)C(=O)O; NMeL = CN[C@@H](CC(C)C)C(=O)O; Morpholide = C1CN(*)CCO1; NMeA = CN[C@@H](C)C(=O)O; Ac5c = NC1(C(=O)O)CCCC1; Aze = O=C(O)[C@@H]1CCN1; Sar = CNCC(=O)O

Assays:
[1] = target: GDP-bound KRAS wild-type protein (Homo sapiens, UniProt P01116); test: Binding to KRAS by surface plasmon resonance (SPR), dissociation constant KD
GDP-bound KRAS wild-type protein, sequence (P01116 1-188 isoform P01116-2): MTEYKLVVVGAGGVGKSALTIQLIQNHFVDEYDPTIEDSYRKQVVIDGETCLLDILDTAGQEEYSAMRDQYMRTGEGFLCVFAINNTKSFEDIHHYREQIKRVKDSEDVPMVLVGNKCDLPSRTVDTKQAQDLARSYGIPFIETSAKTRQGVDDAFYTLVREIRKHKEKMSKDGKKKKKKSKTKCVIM
In short: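 Running buffer contained 10 µM GDP and 10 mM MgCl2 to keep RAS in the GDP state, with 4% DMSO at pH 7.4. Compounds were flowed at 100 µL/min in 75 s steps of rising concentration over captured biotin-Avi RAS at 30°C. Sensorgrams were fitted 1:1 for KD.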

[2] = target: GDP-bound NRAS wild-type protein (Homo sapiens, UniProt P01111); test: Binding to NRAS by surface plasmon resonance (SPR), KD and KD ratio to KRAS
GDP-bound NRAS wild-type protein, sequence (P01111 whole entry): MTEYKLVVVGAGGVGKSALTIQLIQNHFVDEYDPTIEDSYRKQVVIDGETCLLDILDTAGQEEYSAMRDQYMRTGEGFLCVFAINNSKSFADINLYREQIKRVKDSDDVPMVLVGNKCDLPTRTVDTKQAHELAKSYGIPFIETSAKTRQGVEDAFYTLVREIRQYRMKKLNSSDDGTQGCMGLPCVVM
In short: (§1)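 Biotinylated GDP-bound RAS was captured at about 100–300 RU. Running buffer: HBS pH 7.4, 10 mM MgCl2, 10 µM GDP, 1 mM DTT, 0.01% Tween 20, 4% DMSO.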

[3] = target: HRAS wild-type protein (Homo sapiens, UniProt P01112); test: Binding to HRAS by surface plasmon resonance (SPR), KD and KD ratio to KRAS
HRAS wild-type protein, sequence (P01112 whole entry): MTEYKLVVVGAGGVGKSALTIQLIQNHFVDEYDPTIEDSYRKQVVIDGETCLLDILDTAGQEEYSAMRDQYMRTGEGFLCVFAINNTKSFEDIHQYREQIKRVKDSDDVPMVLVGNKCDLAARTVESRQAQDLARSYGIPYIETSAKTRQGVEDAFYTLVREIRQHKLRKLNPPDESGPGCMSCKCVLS
In short: as §1

[4] = system: human lung cancer strain NCI-H441; assay type: cell-based
In short: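 Step one: dispense the test compound in serial DMSO dilutions. Step three: add the reagent and measure […].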

[5] = ratio of KD for GDP-bound NRAS wild-type protein to KD for KRAS
[6] = ratio of KD for HRAS wild-type protein to KD for KRAS
[7] = Single Cycle Kinetics, 1:1 binding model
[8] = ratio of KD value for GDP-bound NRAS wild-type protein to KD value for KRAS (SPR)
[9] = ratio of KD value for HRAS wild-type protein to KD value for KRAS (SPR)
[10] = ratio of the KD value with respect to GDP-bound NRAS wild-type protein to the KD value with respect to KRAS
[11] = ratio of the KD value with respect to HRAS wild-type protein to the KD value with respect to KRAS

SMILES | Kd ([1]; 1:1 binding model) | IC50 [4] | Kd [1, 7] | Kd ([1]; Single Cycle Kinetics) | NRAS /KRAS [2, 5] | HRAS /KRAS [3, 6] | NRAS /KRAS [2, 8] | HRAS /KRAS [3, 9] | NRAS /KRAS [2, 10] | HRAS /KRAS [3, 11]
CCO[C@@H]1C[C@H]2C(=O)NC3(CCC3)C(=O)N(C)[C@@H](C(CC)CC)C(=O)N(C)[C@H](C(=O)N(C)C)CC(=O)N(C)[C@@H](CC3CC3)C(=O)N[C@@H]([C@@H](C)CC)C(=O)N(C)CC(=O)N(C)[C@H]3C/C=C\CCN(C3=O)[C@@H](Cc3ccc(F)cc3C)C(=O)N(C)CC(=O)N[C@@H](CCc3cc(F)c(C(F)(F)F)c(F)c3)C(=O)N2C1 [PP1514] |  | 72.7 nM | 0.65 nM |  |  |  | A (a compound having 10 or more and less than 20 is denoted as A) | A (a compound having 10 or more and less than 20 is denoted as A) |  | 
CCC[C@H]1C(=O)N[C@@H]([C@@H](C)CC)C(=O)N(C)CC(=O)N(C)[C@H]2C/C=C\CCN(C2=O)[C@@H](Cc2ccc(C)cc2)C(=O)N(C)CC(=O)N[C@@H](CCc2ccc(C(F)(F)F)c(Cl)c2)C(=O)N2C[C@H](C)C[C@H]2C(=O)NC2(CC(C)(C)C2)C(=O)N(C)[C@@H](C2CCCC2)C(=O)N(C)[C@H](C(=O)N(C)CC)CC(=O)N1C [PP1894] |  | 15.9 nM | 0.2 nM |  |  |  | A (a compound having 10 or more and less than 20 is denoted as A) | A (a compound having 10 or more and less than 20 is denoted as A) |  | 
CCO[C@@H]1C[C@H]2C(=O)NC3(CCC3)C(=O)N(C)[C@@H](C3CCCC3)C(=O)N(CCc3ccccc3)[C@H](C(=O)N3CCOCC3)CC(=O)N(C)[C@@H](CC(C)C)C(=O)N[C@@H]([C@@H](C)CC)C(=O)N(C)CC(=O)N(C)[C@H]3CCCCCN(C3=O)[C@@H](Cc3ccc(C(F)(F)F)cc3)C(=O)N(C)CC(=O)N[C@@H](CCc3cc(F)c(C(F)(F)F)c(F)c3)C(=O)N2C1 [PP0642] |  | 2650 nM | 110 nM |  |  |  |  |  | B (a compound having 3 or more and less than 10 is denoted as B) | B (a compound having 3 or more and less than 10 is denoted as B)
CCCOC[C@H]1C(=O)N[C@@H]([C@@H](C)CC)C(=O)N(C)CC(=O)N(C)[C@H]2C/C=C\CCN(C2=O)[C@@H](Cc2ccc(C)cc2)C(=O)N(C)CC(=O)N[C@@H](CCc2ccc(C(F)(F)F)c(Cl)c2)C(=O)N2C[C@H](CC)C[C@H]2C(=O)NC2(CC(C)(C)C2)C(=O)N(C)[C@@H](C2CCCC2)C(=O)N(C)[C@H](C(=O)N(C)C)CC(=O)N1C [PP2235] |  | 22.1 nM | 0.28 nM |  |  |  |  |  | A (a compound having 10 or more and less than 20 is denoted as A) | A (a compound having 10 or more and less than 20 is denoted as A)
CCO[C@@H]1C[C@H]2C(=O)NC3(CCC3)C(=O)N(C)[C@@H](C3CCCC3)C(=O)N(C)[C@H](C(=O)N(C)CC)CC(=O)N(C)[C@@H](C3CCC3)C(=O)N[C@@H]([C@@H](C)CC)C(=O)N(C)CC(=O)N(C)[C@H]3C/C=C\CCN(C3=O)[C@@H](Cc3ccc(C(F)(F)F)cc3)C(=O)N(C)CC(=O)N[C@@H](CCc3ccc(C(F)(F)F)c(OC)c3)C(=O)N2C1 [PP2022] |  | 2.7 nM | 0.11 nM |  |  |  |  |  | A (a compound having 10 or more and less than 20 is denoted as A) | A (a compound having 10 or more and less than 20 is denoted as A)
CCO[C@@H]1C[C@H]2C(=O)NC3(CCC3)C(=O)N(C)[C@@H](C(CC)CC)C(=O)N(C)[C@H](C)CC(=O)N(C)[C@@H](CC(C)C)C(=O)N[C@@H]([C@@H](C)CC)C(=O)N(C)CC(=O)N(C)[C@H]3C/C=C\CCN(C3=O)[C@@H](Cc3ccc(F)cc3)C(=O)N(C)CC(=O)N[C@@H](CCc3cc(F)c(C(F)(F)F)c(F)c3)C(=O)N2C1 [PP1525] |  | 132 nM | 1.7 nM |  |  |  | A (a compound having 10 or more and less than 20 is denoted as A) | A (a compound having 10 or more and less than 20 is denoted as A) |  | 
CC[C@H](C)[C@@H]1NC(=O)[C@H](CC(C)C)N(C)C(=O)C[C@@H](C(=O)N2CCOCC2)N(C)C(=O)[C@H](C2CCCC2)N(C)C(=O)C2(CCCC2)NC(=O)[C@@H]2CCCN2C(=O)[C@H](CCc2ccc(C(F)(F)F)c(Cl)c2)NC(=O)CN(C)C(=O)[C@H](Cc2ccc(C)cc2)N(CCC(C)(C)C)C(=O)[C@@H]2CCN2C(=O)[C@H](C)N(C)C1=O [PP0087] ([NMeL]I[NMeA][Aze][X5][Sar][hPhe(3-Cl-4-CF3)]P[Ac5c][NMeGly(cPent)][NMeD]-Morpholide; lactam N-11) | 0.75 nM | 24 nM |  |  | C (A compound having a KD ratio of 0.1 or more and less than 3 is denoted as C) | C (A compound having a KD ratio of 0.1 or more and less than 3 is denoted as C) |  |  |  | 
CCCN1C(=O)[C@H](C2CCCC2)N(C)C(=O)C2(CCC2)NC(=O)[C@@H]2C[C@@H](OCC)CN2C(=O)[C@H](CCc2cc(F)c(C(F)(F)F)c(F)c2)NC(=O)CN(C)C(=O)[C@H](Cc2ccc(C(F)(F)F)cc2)N2CCCC[C@@H](C2=O)N(C)C(=O)CN(C)C(=O)[C@H]([C@@H](C)CC)NC(=O)[C@H](CC)N(C)C(=O)C[C@H]1C(=O)N(C)C [PP0644] |  | 20.7 nM | 0.15 nM |  |  |  |  |  | C (A compound having a KD ratio of 0.1 or more and less than 3 is denoted as C) | B (a compound having 3 or more and less than 10 is denoted as B)

More lines, in order of falling IC50 [4], values ahead:

Kd ([1]; 1:1 binding model) | IC50 [4] | Kd [1, 7] | Kd ([1]; Single Cycle Kinetics) | SMILES | NRAS /KRAS [2, 5] | HRAS /KRAS [3, 6] | NRAS /KRAS [2, 8] | HRAS /KRAS [3, 9] | NRAS /KRAS [2, 10] | HRAS /KRAS [3, 11]
 | 118 nM | 2.6 nM |  | CCO[C@@H]1C[C@H]2C(=O)NC3(CCC3)C(=O)N(C)[C@@H](C3CCCC3)C(=O)N(C)[C@H](C)CC(=O)N(C)[C@@H](CC3CC3)C(=O)N[C@@H]([C@@H](C)CC)C(=O)N(C)CC(=O)N(C)[C@H]3C/C=C\CCN(C3=O)[C@@H](Cc3ccc(F)cc3C)C(=O)N(C)CC(=O)N[C@@H](CCc3cc(F)c(C(F)(F)F)c(F)c3)C(=O)N2C1 [PP1489] |  |  | B (a compound having 3 or more and less than 10 is denoted as B) | B (a compound having 3 or more and less than 10 is denoted as B) |  | 
 | 56.6 nM |  | 0.59 nM | CC[C@H](C)[C@@H]1NC(=O)[C@H](CC(C)C)N(C)C(=O)C[C@@H](C(=O)N2CCOCC2)N(C)C(=O)[C@H](C2CCCC2)N(C)C(=O)C2(CCCC2)NC(=O)[C@@H]2CCCN2C(=O)[C@H](CCc2cc(F)c(C(F)(F)F)c(F)c2)NC(=O)CN(C)C(=O)[C@H](Cc2ccc(F)cc2)N2CCCCC[C@@H](C2=O)N(C)C(=O)CN(C)C1=O [PP0964] | B (a compound having 3 or more and less than 10 is denoted as B) | B (a compound having 3 or more and less than 10 is denoted as B) |  |  |  | 
 | 44.9 nM | 1.1 nM |  | CCC[C@H]1C(=O)N[C@@H]([C@@H](C)CC)C(=O)N(C2CC2)CC(=O)N(C)[C@H]2C/C=C\CCN(C2=O)[C@@H](CC2CCCCC2)C(=O)N(C)CC(=O)N[C@@H](CCc2ccc(C(F)(F)F)c(OC)c2)C(=O)N2C[C@H](OCC)C[C@H]2C(=O)N(C)C2(CCC2)C(=O)N(C)[C@@H](C2CCCC2)C(=O)N(C)[C@H](C(=O)N(C)C)CC(=O)N1C [PP2340] |  |  |  |  | B (a compound having 3 or more and less than 10 is denoted as B) | B (a compound having 3 or more and less than 10 is denoted as B)
0.29 nM | 11.7 nM |  |  | CCCN1C(=O)CN(C)C(=O)[C@@H]2CCN2C(=O)[C@H]([C@@H](C)CC)NC(=O)[C@H](CC(C)C)N(C)C(=O)C[C@@H](C(=O)N2CCOCC2)N(C)C(=O)[C@H](C2CCCC2)N(C)C(=O)C2(CCCC2)NC(=O)[C@@H]2C[C@@H](OC)CN2C(=O)[C@H](CCc2ccc(C(F)(F)F)c(Cl)c2)NC(=O)CN(C)C(=O)[C@@H]1Cc1ccc(C(F)(F)F)cc1 [PP0309] ([NMeL]I[Aze][Sar][NPrPhe(4-CF3)][Sar][hPhe(3-Cl-4-CF3)][Hyp](Me)[Ac5c][NMeGly(cPent)][NMeD]-Morpholide; lactam N-11) | B (a compound having 3 or more and less than 10 is denoted as B) | B (a compound having 3 or more and less than 10 is denoted as B) |  |  |  | 
0.52 nM | 11.3 nM |  |  | CCCN1C(=O)CN(C)C(=O)[C@@H]2[C@@H](C)CN2C(=O)[C@H]([C@@H](C)CC)NC(=O)[C@H](CC(C)C)N(C)C(=O)C[C@@H](C(=O)N2CCOCC2)N(C)C(=O)[C@H](C2CCCC2)N(C)C(=O)C2(CCCC2)NC(=O)[C@@H]2CCCN2C(=O)[C@H](CCc2ccc(C(F)(F)F)c(Cl)c2)NC(=O)CN(C)C(=O)[C@@H]1Cc1ccc(C(F)(F)F)cc1 [PP0258] ([NMeL]I[Aze(3S-Me)][Sar][NPrPhe(4-CF3)][Sar][hPhe(3-Cl-4-CF3)]P[Ac5c][NMeGly(cPent)][NMeD]-Morpholide; lactam N-11) | B (a compound having 3 or more and less than 10 is denoted as B) | C (A compound having a KD ratio of 0.1 or more and less than 3 is denoted as C) |  |  |  | 
 | 7.8 nM | 0.59 nM |  | CC[C@H](C)[C@@H]1NC(=O)[C@H](CC)N(C)C(=O)C[C@@H](C(=O)N(C)C)N(C)C(=O)[C@H](C2CCCC2)N(C)C(=O)C2(CCCC2)N(C)C(=O)[C@@H]2C[C@@H](C)CN2C(=O)[C@H](CCc2cc(F)c(C(F)(F)F)c(F)c2)NC(=O)CN(C)C(=O)[C@H](Cc2ccc(C)cc2)N2CC/C=C\C[C@@H](C2=O)N(C)C(=O)CN(C)C1=O [PP1812] |  |  | A (a compound having 10 or more and less than 20 is denoted as A) | A (a compound having 10 or more and less than 20 is denoted as A) |  | 
